Assay [1] has as its target CDK6 (Homo sapiens (Human), UniProt Q00534). As to the kind of experiment: CDK6 protein kinase activity, Caliper mobility shift assay. Type of assay: biochemical. To be noted: GST-CDK6(1-326 end), substrate Peptide FAM-P8, 28° C. for 3 h. On the procedure: (§1) Activity Assay: The CDK6 protein kinase activity was measured using the Caliper mobility shift assay (see J. Biomol. Screen, 2009, PP31). The test compound was dissolved in DMSO and diluted with a kinase buffer solution (20 mM HEPES-pH 7.5, 0.01% Triton X-100, 10 mM MgCl2, 2 mM DTT) and 5 μL of compound at 5-fold final concentration of reaction dissolved in 10% DMSO was added in a 384-well plate. The compound-free control well was 5 μL of 10% DMSO, and the no-activity control well was 5 μL of kinase buffer. 10 μL of a 2.5-fold diluted CDK6 enzyme solution (GST-CDK6(1-326 end)) was added and incubated at room temperature for 10 min, and then 10 μL of the 2.5-fold diluted substrate solution Peptide FAM-P8 was added. The reaction was stopped by adding 25 μL of stop solution after incubation at 28° C. for 3 h, and the conversion rate data was read on a Caliper EZ Reader II (Caliper Life Sciences) and the conversion rate was converted to inhibition rate data according to above method. Among them, the inhibition rate %=(max−conversion)/(max−min)×100%.

The target in assay [2] is CDK4 (Homo sapiens (Human), UniProt P11802). As to the kind of experiment: CDK4 protein kinase activity, Caliper mobility shift assay. Type of assay: biochemical. Particulars: GST-CDK4(1-303 end), substrate Peptide FAM-P8, 28° C. for 3 h. On the procedure: as §1, with “activity assay:” for “Activity Assay:”, “CDK4” for “CDK6”, “(GST-CDK4(1-303” for “(GST-CDK6(1-326”
Sequence of CDK4 (P11802 whole entry): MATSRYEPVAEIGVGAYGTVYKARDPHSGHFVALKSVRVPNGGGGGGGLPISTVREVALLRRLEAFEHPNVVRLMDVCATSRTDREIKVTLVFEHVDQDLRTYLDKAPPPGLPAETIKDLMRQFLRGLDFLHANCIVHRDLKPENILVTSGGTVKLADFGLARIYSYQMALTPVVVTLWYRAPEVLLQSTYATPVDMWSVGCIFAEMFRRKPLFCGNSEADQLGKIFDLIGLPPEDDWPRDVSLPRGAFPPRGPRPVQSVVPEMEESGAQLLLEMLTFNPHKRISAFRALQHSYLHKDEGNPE
Sequence of CDK4 (P30281 whole entry partner): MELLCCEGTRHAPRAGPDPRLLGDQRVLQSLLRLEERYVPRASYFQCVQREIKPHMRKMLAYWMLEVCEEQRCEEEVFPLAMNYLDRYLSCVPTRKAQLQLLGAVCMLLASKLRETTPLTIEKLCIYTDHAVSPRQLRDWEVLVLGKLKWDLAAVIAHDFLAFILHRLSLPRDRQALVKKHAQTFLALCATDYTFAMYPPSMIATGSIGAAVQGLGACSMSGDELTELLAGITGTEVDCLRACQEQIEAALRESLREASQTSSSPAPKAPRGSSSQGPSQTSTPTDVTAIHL

This is an account of results in patent US10464927B2, “2,4-disubstituted pyrimidines as CDK inhibitors” (Shanghai Xunhe Pharmaceutical Technology Co. Ltd., priority 2016, dated 2019).

Each structure is given as a SMILES string. pIC50: −log10 of the molar value. Bounds are passed on as bounds.

Sequence of CDK6 (Q00534 whole entry): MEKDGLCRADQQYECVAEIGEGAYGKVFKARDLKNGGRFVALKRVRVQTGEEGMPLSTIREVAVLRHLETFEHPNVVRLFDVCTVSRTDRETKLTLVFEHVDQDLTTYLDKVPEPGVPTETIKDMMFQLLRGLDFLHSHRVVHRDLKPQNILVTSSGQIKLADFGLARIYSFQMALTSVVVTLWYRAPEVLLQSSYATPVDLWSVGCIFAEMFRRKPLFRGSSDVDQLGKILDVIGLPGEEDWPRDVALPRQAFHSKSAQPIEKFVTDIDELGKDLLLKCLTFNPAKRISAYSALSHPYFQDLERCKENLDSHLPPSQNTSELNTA
Sequence of CDK6 (P30281 whole entry partner): as the sequence (P30281 whole entry partner) above

One may read the pIC50 as −log10 of the IC50, conventionally taken in molar units. Take `CCC(CC)n1c(C(C)C)nc2cnc(-c3nc(Nc4ccc(CN5CCN(C)CC5)cn4)ncc3F)nc21` [Compound I-39, N-(5-(4-methylpiperazin-1-methyl)-pyridin-2-yl)-5-fluoro-4-(9-(3-pentyl)-8-isopropyl-9H-purin-2-yl)pyrimidin-2-amine]: the pIC50 in assay [1] and in assay [2] was at least 7.70 throughout.
As for `CCN1CCN(Cc2ccc(Nc3ncc(F)c(-c4ncnc5c4cc(C)n5C4CCCC4)n3)nc2)CC1` [Compound I-11, N-(5-(4-ethylpiperazine-1-methyl)-pyridin-2-yl)-5-fluoro-4-(6-methyl-7-cyclopentyl-7H-pyrrolo[2,3-d]pyrimidin-4-yl)pyrimidin-2-amine], the values for the pIC50 in assay [1] and in assay [2] were 6.30 to 7.00 and at least 7.70, respectively.
